The test system of the assay is HT-29 cells. Briefly: HT29 cells 0FBS assay in vitro: TNF-α/SMAC mimetic/zVAD-FMK induced necroptosis, CellTiter-Glo cell viability (RIP1 inhibitory activity). The class given is cell-based. To be noted: Homo sapiens, FBS free medium, TNF-α (10 ng/ml) + SMAC mimetic (6 uM) + zVAD-FMK (10 μM), 20 hours, geometric mean EC50. An excerpt:
Protocol for HT29 Cells 0FBS Assay In Vitro
• Cell line: HT-29 (ATCC® HTB-38™) • Culture medium: McCOY's 5A, Gibco, Cat No. 16600-082 • FBS, Gibco, Cat No. 10099-141C • Trypsin: Gibco, Cat No. 25200-056 • DMSO: Sigma, Cat No. 67-68-5, 1L • Assay plate: Corning #3903 • Compound dilution plate: Corning #3357 • Inducers: TNFα, GenScript, Cat No. Z01001-50, • SmacM, Cat. No., HY-15989, MedChemExpress (MCE) • Z_VAD FMK, TargetMol, T6013 • Cell Titer-Glo® Luminescent Cell Viability Assay Kit: Promega, Cat No. G7573 • EnVision: PerkinElmer, 2105-0010
2. Cell Seeding of HT-29 Cells
1) HT-29 cells were checked every day to make sure they are healthy and growing as expected. They were split sub-culturing when were approximately 80% confluent.
2) First pre-warm the culture medium of McCOY's 5A medium (Gibco, Cat No. 16600-082) with 10% FBS (Gibco, Cat No. 10099-141C) in 37° C. water bath for at least 30 min.
3) Growing cells to desired level of confluency 80% in a T75 flask, aspirate the medium, and wash with warm PBS two times.
4) Add 2-3 ml fresh warm trypsin (Gibco, Cat No. 25200-056) solution. Transfer the flask to a 37° C. incubator.
5) After 5 minutes, tap the side of the flask, and examine the flask under a microscope for lifting. If necessary, return the cells to the incubator for an additional 5-10 minutes, with occasional tapping, until lifting is complete.
6) Quickly neutralize the trypsin reaction by adding 6-9 ml cell culture medium, then transfer the cells to sterile 15 ml conical tubes. Pellet the cells by centrifugation at 300×g for 7 minutes, then decant the supernatant.
7) Resuspend the cells in fresh cell culture medium. Do cell counting with hemocytometer.
8) Seed 100 μl of 5,000 cells into each well of the sterile 96-well cell culture plate (Corning 3903) and culture overnight at 37° C. with 5% CO2.
3. Compounds Titration and Treatment of HT-29 Cells
1) All batches of compounds (CPDs0 (e.g., compound 1-169) were dissolved in DMSO (Dimethyl sulfoxide) as 20 mM stock solution.
2) Take 3 ul 20 mM stock solution of CPDs to […] DMSO and mix well, continue the titration ratio of 1:3 (20 ul CPDs+40 ul DMSO), e.g., to give solutions of CPDS at 6.6 mM, 2.2 mM, etc., till the 10 points end.
3) Take out assay plates with HT-29 cells from incubator, remove all culture medium then wash 1 time with 1×PBS, and change fresh McCOY's 5A medium of FBS free with a cocktail of TNF-α (10 ng/ml), the SMAC mimetic (6 uM) and zVAD-FMK (10 μM) to stimulate the HT-29 cells to increase pRIPK1 levels and necroptosis.
4) Add 0.5 μL of the diluted compound to the corresponding 96-well assay plates.
5) Incubate the assay plates for 20 hours at 37° C. with 5% CO2.
4. Performing Cell Viability Detection of HT-29 Cells after Treated with Compounds
1) The CellTiter-Glo® Luminescent Cell Viability Assay was employed to detect the ATP levels of viable HT-29 cells.
2) Equilibrate the CellTiter-Glo® buffer and the lyophilized substrate to room temperature prior to use.
3) Resuspend the CellTiter-Glo® substrate with CellTiter-Glo® buffer, mix by gently vortexing to obtain a homogeneous solution.
4) Pipette 20 μl the enzyme/substrate mixture by multi-channel pipette into the 96-well assay plates from step 5) under the Compounds titration and treatment stage.
5) Place the plates on an orbital shaker and mix the contents for 3 minutes to induce cell lysis.
6) Then allow the plates to incubate at room temperature for 10 minutes to stabilize luminescent signal.
7) Read and record luminescence signal with EnVision.
8) The geometric mean EC50 of the compounds were calculated from 10 points response dose with duplicate. In Table 2, activity is provided as follows: +++=0.1 nM≤EC50<100 nM; ++=100 nM≤EC5 1000 nM; […].
`Cc1ccc(C)n1-c1cc(OC2CN(C(=O)N3N=CC[C@H]3c3cc(F)cc(C#N)c3)C2)c(F)cn1` [Compound 39, (S)-3-(1-(3-((2-(2,5-dimethyl-1H-pyrrol-1-yl)-5-fluoropyridin-4-yl)oxy)azetidine-1-carbonyl)-4,5-dihydro-1H-pyrazol-5-yl)-5-fluorobenzonitrile]: the EC50 is 0.1 to 100 nM. For the compound `Cn1ncc(C#N)c1-c1ccc(F)c(OC2CN(C(=O)N3N=CC[C@H]3c3cc(F)cc(C#N)c3)C2)n1` [Compound 40, (S)-5-(6-((1-(5-(3-cyano-5-fluorophenyl)-4,5-dihydro-1H-pyrazole-1-carbonyl)azetidin-3-yl)oxy)-5-fluoropyridin-2-yl)-1-methyl-1H-pyrazole-4-carbonitrile], the EC50 was 0.1 to 100 nM.

Consider `Cn1ncc(C#N)c1-c1ccc(F)c(OC2CN(C(=O)N3N=CC[C@H]3c3cncc(C#N)c3)C2)n1` [Compound 41, (S)-5-(1-(3-((6-(4-cyano-1-methyl-1H-pyrazol-5-yl)-3-fluoropyridin-2-yl)oxy)azetidine-1-carbonyl)-4,5-dihydro-1H-pyrazol-5-yl)nicotinonitrile], for which the concentration for a half-maximal effect (EC50) is 0.1 to 100 nM. The result for `Cc1cnn(C)c1-c1cc(OC2CN(C(=O)N3N=CC[C@H]3c3cncc(C#N)c3)C2)c(F)cn1` [Compound 42, (S)-5-(1-(3-((2-(1,4-dimethyl-1H-pyrazol-5-yl)-5-fluoropyridin-4-yl)oxy)azetidine-1-carbonyl)-4,5-dihydro-1H-pyrazol-5-yl)nicotinonitrile] reads 0.1 to 100 nM; that for `Cn1ncc(Cl)c1-c1cc(OC2CN(C(=O)N3N=CC[C@H]3c3cncc(F)c3)C2)c(F)cn1` [Compound 43, (S)-(3-((2-(4-chloro-1-methyl-1H-pyrazol-5-yl)-5-fluoropyridin-4-yl)oxy)azetidin-1-yl)(5-(5-fluoropyridin-3-yl)-4,5-dihydro-1H-pyrazol-1-yl) methanone], 0.1 to 100 nM. The result for `Cn1ncc(Cl)c1-c1cc(OC2CN(C(=O)N3N=CC[C@H]3c3cncc(C#N)c3)C2)c(F)cn1` [Compound 44] reads 0.1 to 100 nM; that for `Cn1ncc(F)c1-c1cc(OC2CN(C(=O)N3N=CC[C@H]3c3cncc(F)c3)C2)c(F)cn1` [Compound 45, (S)-(3-((5-fluoro-2-(4-fluoro-1-methyl-1H-pyrazol-5-yl)pyridin-4-yl)oxy)azetidin-1-yl)(5-(5-fluoropyridin-3-yl)-4,5-dihydro-1H-pyrazol-1-yl) methanone], 0.1 to 100 nM. Then `Cn1ncc(F)c1-c1cc(OC2CN(C(=O)N3N=CC[C@H]3c3cncc(C#N)c3)C2)c(F)cn1` [Compound 46, (S)-5-(1-(3-((5-fluoro-2-(4-fluoro-1-methyl-1H-pyrazol-5-yl)pyridin-4-yl)oxy)azetidine-1-carbonyl)-4,5-dihydro-1H-pyrazol-5-yl)nicotinonitrile], with 0.1 to 100 nM. Regarding `Cc1nn(C)c(C)c1-c1cc(OC2CN(C(=O)N3N=CC[C@H]3c3cc(F)cc(C#N)c3)C2)c(F)cn1` [Compound 47, (S)-3-fluoro-5-(1-(3-((5-fluoro-2-(1,3,5-trimethyl-1H-pyrazol-4-yl)pyridin-4-yl)oxy)azetidine-1-carbonyl)-4,5-dihydro-1H-pyrazol-5-yl)benzonitrile], the EC50 lay in the range of 0.1 to 100 nM. Then `CCS(=O)(=O)c1c(C)nn(-c2cc(OC3CN(C(=O)N4N=CC[C@H]4c4cc(F)cc(C#N)c4)C3)c(F)cn2)c1C` [Compound 48, (S)-3-(1-(3-((2-(4-(ethylsulfonyl)-3,5-dimethyl-1H-pyrazol-1-yl)-5-fluoropyridin-4-yl)oxy)azetidine-1-carbonyl)-4,5-dihydro-1H-pyrazol-5-yl)-5-fluorobenzonitrile], with 0.1 to 100 nM. Then `Cc1c(N)nn(C)c1-c1cc(OC2CN(C(=O)N3N=CC[C@H]3c3cc(F)cc(C#N)c3)C2)c(F)cn1` [Compound 49, (S)-3-(1-(3-((2-(3-amino-1,4-dimethyl-1H-pyrazol-5-yl)-5-fluoropyridin-4-yl)oxy)azetidine-1-carbonyl)-4,5-dihydro-1H-pyrazol-5-yl)-5-fluoro benzonitrile], with 0.1 to 100 nM. Then `Cc1c(Cl)nn(C)c1-c1cc(OC2CN(C(=O)N3N=CC[C@H]3c3cc(F)cc(C#N)c3)C2)c(F)cn1` [Compound 50, (S)-3-(1-(3-((2-(3-chloro-1,4-dimethyl-1H-pyrazol-5-yl)-5-fluoropyridin-4-yl)oxy)azetidine-1-carbonyl)-4,5-dihydro-1H-pyrazol-5-yl)-5-fluoro benzonitrile], with 0.1 to 100 nM. With `Cc1c(C#N)nn(C)c1-c1cc(OC2CN(C(=O)N3N=CC[C@H]3c3cc(F)cc(C#N)c3)C2)c(F)cn1` [Compound 51, (S)-5-(4-((1-(5-(3-cyano-5-fluorophenyl)-4,5-dihydro-1H-pyrazole-1-carbonyl)azetidin-3-yl)oxy)-5-fluoropyridin-2-yl)-1,4-dimethyl-1H-pyrazole-3-carbonitrile], the half-maximal effective concentration (EC50) fell in the range of 0.1 to 100 nM.

In the case of `CCn1nc(C)c(-c2cc(OC3CN(C(=O)N4N=CC[C@H]4c4cc(F)cc(C#N)c4)C3)c(F)cn2)c1C` [Compound 52, (S)-3-(1-(3-((2-(1-ethyl-3,5-dimethyl-1H-pyrazol-4-yl)-5-fluoropyridin-4-yl)oxy)azetidine-1-carbonyl)-4,5-dihydro-1H-pyrazol-5-yl)-5-fluorobenzonitrile], the EC50 lay within 0.1 to 100 nM. The result for `Cc1cnn(C)c1-c1ccc(F)c(OC2CN(C(=O)N3N=CC[C@H]3c3cc(F)cc(C#N)c3)C2)n1` [Compound 53, (S)-3-(1-(3-((6-(1,4-dimethyl-1H-pyrazol-5-yl)-3-fluoropyridin-2-yl)oxy)azetidine-1-carbonyl)-4,5-dihydro-1H-pyrazol-5-yl)-5-fluorobenzonitrile] reads 0.1 to 100 nM; that for `Cc1cnn(C)c1-c1ccc(F)c(OC2CN(C(=O)N3N=CC[C@H]3c3cncc(C#N)c3)C2)n1` [Compound 55, (S)-5-(1-(3-((6-(1,4-dimethyl-1H-pyrazol-5-yl)-3-fluoropyridin-2-yl)oxy)azetidine-1-carbonyl)-4,5-dihydro-1H-pyrazol-5-yl)nicotinonitrile], 0.1 to 100 nM. Then `Cc1c(C#N)nn(C)c1-c1ccc(F)c(OC2CN(C(=O)N3N=CC[C@H]3c3cc(F)cc(C#N)c3)C2)n1` [Compound 56, (S)-5-(6-((1-(5-(3-cyano-5-fluorophenyl)-4,5-dihydro-1H-pyrazole-1-carbonyl)azetidin-3-yl)oxy)-5-fluoropyridin-2-yl)-1,4-dimethyl-1H-pyrazole-3-carbonitrile], with 0.1 to 100 nM; and `Cc1nn(CC2CC2)c(C)c1-c1cc(OC2CN(C(=O)N3N=CC[C@H]3c3cc(F)cc(C#N)c3)C2)c(F)cn1` [Compound 57, (S)-3-(1-(3-((2-(1-(cyclopropylmethyl)-3,5-dimethyl-1H-pyrazol-4-yl)-5-fluoropyridin-4-yl)oxy)azetidine-1-carbonyl)-4,5-dihydro-1H-pyrazol-5-yl)-5-fluorobenzonitrile], with 0.1 to 100 nM.

In the case of `Cc1c(C(N)=O)nn(C)c1-c1cc(OC2CN(C(=O)N3N=CC[C@H]3c3cc(F)cc(C#N)c3)C2)c(F)cn1` [Compound 58, (S)-5-(4-((1-(5-(3-cyano-5-fluorophenyl)-4,5-dihydro-1H-pyrazole-1-carbonyl)azetidin-3-yl)oxy)-5-fluoropyridin-2-yl)-1,4-dimethyl-1H-pyrazole-3-carboxamide], the EC50 is 0.1 to 100 nM.

The record behind these values is patent publication US20240294508A1, “RIP1 MODULATORS INCLUDING AZETIDINE CYCLIC UREAS, PREPARATIONS, AND USES THEREOF” (SIRONAX LTD., priority 2021, published 2024).
